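The compound was tested at five concentrations on cells cultured in 96-well plates, with a 48-hour exposure period. Abbreviation: GI50, concentration required for 50% inhibition of growth. TGI: total growth inhibition.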
Key:
Test in all cases: growth of human tumour cells (NCI), 48 h
[1] = test system: RXF 393 renal
[2] = test system: NCI-H522 lung
[3] = test system: BT-549 breast
[4] = test system: NCI-H460 lung
[5] = test system: CCRF-CEM leukemia
[6] = test system: HCT-116 colon
[7] = test system: U251 CNS
[8] = test system: SNB-19 CNS
[9] = test system: LOX IMVI melanoma
[10] = test system: SNB-75 CNS
[11] = test system: CAKI-1 renal
[12] = test system: NCI-H226 lung
[13] = test system: K-562 leukemia
[14] = test system: UO-31 renal
[15] = test system: MDA-MB-435
[16] = test system: MOLT-4 leukemia
[17] = test system: SF-539 CNS
[18] = test system: KM12 colon
[19] = test system: SW-620 colon
[20] = test system: UACC-62 melanoma
[21] = test system: NCI/ADR-RES ovarian
[22] = test system: UACC-257 melanoma
[23] = test system: T-47D breast
[24] = test system: 786-0 renal
[25] = test system: OVCAR-3 ovarian
[26] = test system: HS 578T breast
[27] = test system: HT29 colon
[28] = test system: HCT-15 colon
[29] = test system: MDA-MB-231 breast
[30] = test system: SK-MEL-28 melanoma
[31] = test system: MCF7 breast
[32] = test system: HOP-62 NSCLC
[33] = test system: SF-295 CNS
[34] = test system: SK-MEL-5 melanoma
[35] = test system: HOP-92 NSCLC
[36] = test system: TK-10 renal
[37] = test system: MALME-3M melanoma
[38] = test system: SK-OV-3 ovarian
[39] = test system: M14 melanoma
[40] = test system: RPMI-8226 leukemia
[41] = test system: A549 NSCLC
[42] = test system: ACHN renal
[43] = test system: A498 renal
[44] = test system: NCI-H23 lung
[45] = test system: HL-60(TB) leukemia
[46] = test system: SN12C renal
[47] = test system: DU-145 prostate
[48] = test system: OVCAR-5 ovarian
[49] = test system: PC-3 prostate
[50] = test system: OVCAR-4 ovarian
[51] = test system: SK-MEL-2 melanoma
[52] = test system: SF-268 CNS
[53] = test system: IGROV1 ovarian
[54] = test system: HCC-2998 colon
[55] = test system: COLO 205 colon
[56] = test system: EKVX NSCLC
[57] = test system: OVCAR-8 ovarian

c1ccc2nc(N/N=C3\CCCCC3C3CCCCC3)ccc2c1 (stereo unspecified)
GI50 [1]: 9.21 µM | TGI [1]: 26.9 µM | GI50 [2]: 4.97 µM | TGI [2]: 20.4 µM | GI50 [3]: 9.09 µM | TGI [3]: 22.1 µM | GI50 [4]: 3.84 µM | TGI [4]: 16.5 µM | GI50 [5]: 2.83 µM | TGI [5]: 14 µM | GI50 [6]: 3.32 µM | TGI [6]: 13.5 µM | GI50 [7]: 6.44 µM | TGI [7]: 20.8 µM | GI50 [8]: 11.4 µM | TGI [8]: 24.6 µM | GI50 [9]: 3.25 µM | TGI [9]: 13.1 µM | GI50 [10]: 11.1 µM | TGI [10]: 30.9 µM | GI50 [11]: 4.78 µM | TGI [11]: 25.3 µM | GI50 [12]: 6.3 µM | TGI [12]: 22.9 µM | GI50 [13]: 4.85 µM | TGI [13]: > 100 µM | GI50 [14]: 2.89 µM | TGI [14]: 14.4 µM | GI50 [15]: 6.95 µM | TGI [15]: 21.3 µM | GI50 [16]: 3.2 µM | TGI [16]: 17.1 µM | GI50 [17]: 7.69 µM | TGI [17]: 21.4 µM | GI50 [18]: 4.27 µM | TGI [18]: 15.7 µM | GI50 [19]: 4.12 µM | TGI [19]: 16.3 µM | GI50 [20]: 3.89 µM | TGI [20]: 15.6 µM | GI50 [21]: 5.29 µM | TGI [21]: 21 µM | GI50 [22]: 10.3 µM | TGI [22]: 27.5 µM | GI50 [23]: 4.33 µM | TGI [23]: 21.8 µM | GI50 [24]: 7.12 µM | TGI [24]: 21.6 µM | GI50 [25]: 13.9 µM | TGI [25]: 27 µM | GI50 [26]: 10.4 µM | TGI [26]: 30.9 µM | GI50 [27]: 3.7 µM | TGI [27]: 14.6 µM | GI50 [28]: 3.52 µM | TGI [28]: 14.8 µM | GI50 [29]: 5.49 µM | TGI [29]: 20.5 µM | GI50 [30]: 10.9 µM | TGI [30]: 24.9 µM | GI50 [31]: 2.46 µM | TGI [31]: 11.7 µM | GI50 [32]: 11.8 µM | TGI [32]: 25.7 µM | GI50 [33]: 2.4 µM | TGI [33]: 11.8 µM | GI50 [34]: 2.58 µM | TGI [34]: 10.4 µM | GI50 [35]: 2.2 µM | TGI [35]: 10 µM | GI50 [36]: 6.72 µM | TGI [36]: 19.5 µM | GI50 [37]: 2.36 µM | TGI [37]: 12.9 µM | GI50 [38]: 14.8 µM | TGI [38]: 34.3 µM | GI50 [39]: 10.3 µM | TGI [39]: 26.5 µM | GI50 [40]: 2.02 µM | TGI [40]: 4.76 µM | GI50 [41]: 6.26 µM | TGI [41]: 29.1 µM | GI50 [42]: 8.02 µM | TGI [42]: 20.8 µM | GI50 [43]: 11.4 µM | TGI [43]: 27.9 µM | GI50 [44]: 3.89 µM | TGI [44]: 17.3 µM | GI50 [45]: 3.74 µM | TGI [45]: 25.6 µM | GI50 [46]: 6.54 µM | TGI [46]: 21.1 µM | GI50 [47]: 11.9 µM | TGI [47]: 24.8 µM | GI50 [48]: 8.27 µM | TGI [48]: 21.5 µM | GI50 [49]: 3.07 µM | TGI [49]: 17.6 µM | GI50 [50]: 3.9 µM | TGI [50]: 22.8 µM | GI50 [51]: 3.48 µM | TGI [51]: 16.6 µM | GI50 [52]: 10.8 µM | TGI [52]: 24.9 µM | GI50 [53]: 2.92 µM | TGI [53]: 15.4 µM | GI50 [54]: 3.46 µM | TGI [54]: 14 µM | GI50 [55]: 3.26 µM | TGI [55]: 12.7 µM | GI50 [56]: 5.22 µM | TGI [56]: 20.2 µM | GI50 [57]: 11.2 µM | TGI [57]: 29 µM

Cc1cc(Cl)ccc1OCc1nn2c(CCCCc3nnc4sc(COc5ccc(Cl)cc5C)nn34)nnc2s1
GI50 [1]: 18 µM | TGI [1]: 62.8 µM | GI50 [2]: 20.8 µM | TGI [2]: 61.7 µM | GI50 [3]: 11.6 µM | TGI [3]: 51.8 µM | GI50 [4]: 24.7 µM | TGI [4]: > 93.6 µM | GI50 [5]: 33.7 µM | TGI [5]: > 61.6 µM | GI50 [6]: 32.2 µM | TGI [6]: > 81 µM | GI50 [7]: 25.3 µM | TGI [7]: > 74.7 µM | GI50 [8]: 48.9 µM | TGI [8]: > 80.4 µM | GI50 [9]: 28.2 µM | TGI [9]: > 100 µM | GI50 [10]: 13.8 µM | TGI [10]: 51 µM | GI50 [11]: 4.52 µM | TGI [11]: > 55.3 µM | GI50 [12]: 21.8 µM | TGI [12]: 74.5 µM | GI50 [13]: > 73.2 µM | TGI [13]: > 100 µM | GI50 [14]: 14.5 µM | TGI [14]: > 100 µM | GI50 [15]: 7.12 µM | TGI [15]: > 57.8 µM | GI50 [16]: 25.5 µM | TGI [16]: > 100 µM | TGI [17]: 1.47 µM | GI50 [18]: 17.2 µM | TGI [18]: > 100 µM | GI50 [19]: 3.48 µM | TGI [19]: > 41 µM | GI50 [20]: 22.6 µM | TGI [20]: > 100 µM | GI50 [21]: 23 µM | TGI [21]: 74 µM | GI50 [22]: 8.41 µM | TGI [22]: > 100 µM | GI50 [23]: 14.6 µM | TGI [23]: 57.2 µM | GI50 [24]: 26.7 µM | TGI [24]: 55.5 µM | GI50 [25]: 7.99 µM | TGI [25]: 72.2 µM | GI50 [26]: 0.544 µM | GI50 [27]: 43.6 µM | TGI [27]: > 100 µM | GI50 [28]: 47.1 µM | TGI [28]: > 100 µM | GI50 [29]: 17.7 µM | TGI [29]: > 78.6 µM | GI50 [30]: 52.7 µM | TGI [30]: > 100 µM | GI50 [31]: 21.9 µM | TGI [31]: > 73.2 µM | GI50 [32]: 32.2 µM | TGI [32]: 58.5 µM | GI50 [33]: 8.28 µM | TGI [33]: 76.2 µM | GI50 [34]: 1.68 µM | TGI [34]: 9.75 µM | GI50 [35]: 34.2 µM | TGI [35]: > 68.8 µM | GI50 [36]: 26.2 µM | TGI [36]: 74.2 µM | GI50 [37]: 29.2 µM | TGI [37]: > 86.1 µM | GI50 [38]: 35.4 µM | TGI [38]: 73.1 µM | GI50 [39]: 45.9 µM | TGI [39]: > 100 µM | GI50 [40]: 18.9 µM | TGI [40]: > 100 µM | GI50 [41]: 27 µM | TGI [41]: > 100 µM | GI50 [42]: 34.1 µM | TGI [42]: > 100 µM | GI50 [43]: 1.67 µM | TGI [43]: 8.21 µM | GI50 [44]: 29.8 µM | TGI [44]: > 100 µM | GI50 [45]: > 94.2 µM | TGI [45]: > 100 µM | GI50 [46]: 37.8 µM | TGI [46]: > 100 µM | GI50 [47]: 13.9 µM | TGI [47]: > 100 µM | GI50 [48]: > 100 µM | TGI [48]: > 100 µM | GI50 [49]: 22.4 µM | TGI [49]: > 80.1 µM | GI50 [50]: 21.2 µM | TGI [50]: > 69.6 µM | GI50 [51]: > 63.4 µM | TGI [51]: > 89.5 µM | GI50 [52]: 23 µM | TGI [52]: > 76.7 µM | GI50 [53]: 28.4 µM | TGI [53]: > 100 µM | GI50 [54]: 30.2 µM | TGI [54]: > 100 µM | GI50 [55]: 43.5 µM | TGI [55]: > 100 µM | GI50 [56]: 11.3 µM | TGI [56]: > 76.2 µM | GI50 [57]: 8.99 µM | TGI [57]: > 83.1 µM
